Data reported in PMC8454699, “Structure and function of aerotolerant, multiple-turnover THI4 thiazole synthases” (Biochemical Journal, 2021).

Target: T1, Thermovibrio ammonificans THI4 (TaTHI4) (Thermovibrio ammonificans, UniProt E8T346)
T1 construct: N-terminal His6 tag (pBAD24, recoded gene), E. coli BL21(DE3); homooctamer, four monomers per asymmetric unit; anaerobically reconstituted with Fe(II), NAD+ and glycine
Assay: X-ray crystallography, […] A
Format: binding
Conditions: reaction intermediate formed from NAD+ and glycine; Fe(II)-reconstituted, anaerobic; pH 7.5, 22 °C; active site, pincer-type ligand of Fe(II)

CC(N=CC(=O)O)C(=O)C(O)COP(=O)(O)OP(=O)(O)OC[C@H]1O[C@@H](n2cnc3c(N)ncnc32)[C@H](O)[C@@H]1O (stereo partly shown) [glycine imine intermediate]
X-ray crystallography, 2.3 A: Clear density for the TaTHI4 treated with NAD and glycine shows the expected glycine imine
